Laboratory results as given in patent publication US20150174137A1, “COMPOSITIONS FOR TREATING MICROBIAL INFECTIONS” (ALCON RESEARCH, LTD., priority 2010, published 2015).
Values after ≈ are worked out from the molar mass of the structure shown.

What was measured:
[1] = Solubility of finafloxacin in three magnesium chloride-containing solutions at various pH; format: physicochemical; conditions: for solubility: aqueous with cosolvent or surfactant or cyclodextrin
[2] = pH 7.4 in 0.1M phosphate buffer; cited from earlier work
[3] = Solubility studies of fluoroquinolones (0.3%) with ZnCl2, MgCl2 or CaCl2; conditions: quinolone 0.3%
[4] = Solubility studies of finafloxacin monohydrochloride in aqueous solution with various salts; format: physicochemical
From the text: TABLE 1 below summarizes the results of solubility studies using finafloxacin monohydrochloride in aqueous solution with various salts at different concentrations. […] In particular, magnesium salts generated clear, colorless solutions at slightly acidic, physiologically-compatible pH ranges.

[5] = TABLE 3A magnesium chloride-containing solution, final pH 5.73
[6] = TABLE 3A magnesium chloride-containing solution, final pH 6.23
[7] = TABLE 3A magnesium chloride-containing solution, final pH 6.58
[8] = TABLE 3A magnesium chloride-containing solution, final pH 7.12
[9] = TABLE 3A magnesium chloride-containing solution, final pH 7.55
[10] = TABLE 3B magnesium chloride-containing solution, pH 6.08
[11] = TABLE 3B magnesium chloride-containing solution, pH 6.15
[12] = TABLE 3B magnesium chloride-containing solution, pH 6.69
[13] = TABLE 3B magnesium chloride-containing solution, pH 7.29
[14] = TABLE 3B magnesium chloride-containing solution, pH 7.54
[15] = TABLE 3C magnesium chloride-containing solution, pH 5.22
[16] = TABLE 3C magnesium chloride-containing solution, pH 6.19
[17] = TABLE 3C magnesium chloride-containing solution, pH 6.65
[18] = TABLE 3C magnesium chloride-containing solution, pH 7.16
[19] = TABLE 3C magnesium chloride-containing solution, pH 7.67
[20] = 0.05% MgCl2 5.27 mM + 0.05% ZnCl2 3.67 mM
[21] = 0.05% MgCl2 5.27 mM + 0.1% ZnCl2 7.34 mM
[22] = 0.1% MgCl2 10.5 mM + 0.05% ZnCl2 3.67 mM
[23] = 0.1% MgCl2 10.5 mM + 0.1% ZnCl2 7.3 mM
[24] = AlCl3 13.5 mM, Conc. (%) 0.180%
[25] = CaGluconate 17.5 mM, Conc. (%) 0.75%
[26] = Mg(CH3COO)2 1.3 mM, Conc. (%) 0.019%
[27] = Mg(CH3COO)2 6.7 mM, Conc. (%) 0.095%
[28] = Mg(CH3COO)2 13.5 mM, Conc. (%) 0.19%
[29] = MgCl2 2.45 mM, Conc. (%) 0.023%
[30] = ZnCl2 13.5 mM, Conc. (%) 0.184%

## Cl.N#Cc1c(N2C[C@@H]3NCCO[C@H]3C2)c(F)cc2c(=O)c(C(=O)O)cn(C3CC3)c12 [Finafloxacin HCl, finafloxacin monohydrochloride]
[1]; [5]
  Solubility of finafloxacin: 0.404 w/v %
[1]; [6]
  Solubility of finafloxacin: 0.727 w/v %
[1]; [7]
  Solubility of finafloxacin: 0.638 w/v %
[1]; [8]
  Solubility of finafloxacin: 0.944 w/v %
[1]; [9]
  Solubility of finafloxacin: 1.244 w/v %
[1]; [10]
  Solubility of finafloxacin: 0.316 w/v %
[1]; [11]
  Solubility of finafloxacin: 0.355 w/v %
[1]; [12]
  Solubility of finafloxacin: 0.628 w/v %
[1]; [13]
  Solubility of finafloxacin: 0.915 w/v %
[1]; [14]
  Solubility of finafloxacin: 1.140 w/v %
[1]; [15]
  Solubility of finafloxacin: 0.130 w/v %
[1]; [16]
  Solubility of finafloxacin: 0.216 w/v %
[1]; [17]
  Solubility of finafloxacin: 0.346 w/v %
[1]; [18]
  Solubility of finafloxacin: 0.501 w/v %
[1]; [19]
  Solubility of finafloxacin: 0.921 w/v %

## COc1c(N2CCNC(C)C2)c(F)cc2c(=O)c(C(=O)O)cn(C3CC3)c12 (stereo not shown) [GATIFLOXACIN, gatifloxacin]
[2]
  literature-reported aqueous solubility: 0.21 w/v %
[3]; CaCl2 10.0 mM, Conc. (w/v %) 0.08%
  C.C.S. (clear colorless solution) pH Range: 7.31-7.55
[3]; MgCl2 10.0 mM, Conc. (w/v %) 0.09%
  C.C.S. (clear colorless solution) pH Range: 6.97-7.52
[3]; ZnCl2 10.0 mM, Conc. (w/v %) 0.13%
  C.C.S. (clear colorless solution) pH Range: 6.61-7.31

## N#Cc1c(N2C[C@@H]3NCCO[C@H]3C2)c(F)cc2c(=O)c(C(=O)O)cn(C3CC3)c12 [Finafloxacin, 8-cyano-1-cyclopropyl-6-fluoro-7-[(4aS,7aS)-hexahydropyrrolo[3,4-b]-1,4-oxazin-6(2H)-yl]-1,4-dihydro-4-oxo-3-quinoline carboxylic acid]
[4]; [20]
  C.C.S. (clear colorless solution) pH Range: 4.86-5.87
  Observation: C.C.S
[4]; [21]
  C.C.S. (clear colorless solution) pH Range: 4.62-5.86
  Observation: C.C.S
[4]; [22]
  C.C.S. (clear colorless solution) pH Range: 5.01-5.75
  Observation: C.C.S
[4]; [23]
  C.C.S. (clear colorless solution) pH Range: 4.68-5.88
  Observation: C.C.S
[4]; AlCl3 1.3 mM, Conc. (%) 0.018%
  C.C.S. (clear colorless solution) pH Range: Not Formed
  Observation: Suspension at pH 3.7-7.4
[4]; AlCl3 6.7 mM, Conc. (%) 0.09%
  C.C.S. (clear colorless solution) pH Range: 2.83-7.46
  Observation: Pale-yellow→at pH 7.58
[4]; [24]
  C.C.S. (clear colorless solution) pH Range: 2.50-7.24
  Observation: Pale-yellow → at pH 7.41
[4]; CaCl2 1.3 mM, Conc. (%) 0.015%
  C.C.S. (clear colorless solution) pH Range: Not Formed
  Observation: Suspension at pH 3.7
[4]; CaCl2 6.7 mM, Conc. (%) 0.075%
  C.C.S. (clear colorless solution) pH Range: Not Formed
  Observation: Suspension at pH 3.7
[4]; CaCl2 13.5 mM, Conc. (%) 0.15%
  C.C.S. (clear colorless solution) pH Range: 6.45
  Observation: C.C.S
[4]; CaCl2 20.0 mM, Conc. (%) 0.22%
  C.C.S. (clear colorless solution) pH Range: 6.29-6.39
  Observation: C.C.S
[4]; [25]
  C.C.S. (clear colorless solution) pH Range: Not Formed
  Observation: Suspension at pH 3.7
[4]; CuCl2 1.3 mM, Conc. (%) 0.018%
  C.C.S. (clear colorless solution) pH Range: Not Formed
  Observation: Suspension at pH 3.7-7.4
[4]; CuCl2 6.7 mM, Conc. (%) 0.09%
  C.C.S. (clear colorless solution) pH Range: 5.14-7.26
  Observation: Light blue coloration
[4]; CuCl2 13.5 mM, Conc. (%) 0.18%
  C.C.S. (clear colorless solution) pH Range: 5.77-6.11
  Observation: Light blue coloration
[4]; KCl 93 mM, Conc. (%) 0.7%
  C.C.S. (clear colorless solution) pH Range: Not Formed
  Observation: Suspension at pH 3.7-7.4
[4]; [26]
  C.C.S. (clear colorless solution) pH Range: Not Formed
  Observation: Suspension at pH 3.7-7.4
[4]; [27]
  C.C.S. (clear colorless solution) pH Range: 6.05-7.57
  Observation: C.C.S.
[4]; [28]
  C.C.S. (clear colorless solution) pH Range: 5.21-8.51
  Observation: C.C.S.
[4]; MgCl2 1.3 mM, Conc. (%) 0.012%
  C.C.S. (clear colorless solution) pH Range: Not Formed
  Observation: Suspension at pH 3.7-7.4
[4]; [29]
  C.C.S. (clear colorless solution) pH Range: Not Formed
  Observation: Suspension at pH 3.7-7.4
[4]; MgCl2 4.91 mM, Conc. (%) […]
  C.C.S. (clear colorless solution) pH Range: 6.68-7.65
  Observation: C.C.S
[4]; MgCl2 6.7 mM, Conc. (%) 0.064%
  C.C.S. (clear colorless solution) pH Range: 6.00-9.84
  Observation: C.C.S
[4]; MgCl2 13.5 mM, Conc. (%) 0.12%
  C.C.S. (clear colorless solution) pH Range: 5.26-9.61
  Observation: C.C.S
[4]; MgSO4 1.3 mM, Conc. (%) 0.016%
  C.C.S. (clear colorless solution) pH Range: Not Formed
  Observation: Suspension at pH 3.7-7.4
[4]; MgSO4 6.7 mM, Conc. (%) 0.08%
  C.C.S. (clear colorless solution) pH Range: 6.36-9.23
  Observation: C.C.S
[4]; MgSO4 13.5 mM, Conc. (%) 0.16%
  C.C.S. (clear colorless solution) pH Range: 6.29-7.44
  Observation: C.C.S
[4]; NaCl 13.5 mM, Conc. (%) 0.076%
  C.C.S. (clear colorless solution) pH Range: Not Formed
  Observation: Suspension at pH 3.7-7.4
[4]; NaCl 27 mM, Conc. (%) 0.15%
  C.C.S. (clear colorless solution) pH Range: Not Formed
  Observation: Suspension at pH 3.7-7.4
[4]; NaCl 120 mM, Conc. (%) 0.79%
  C.C.S. (clear colorless solution) pH Range: Not Formed
  Observation: Suspension at pH 3.7-7.4
[4]; NaSO4 21.3 mM, Conc. (%) 0.3%
  C.C.S. (clear colorless solution) pH Range: Not Formed
  Observation: Suspension at pH 3.7-7.4
[4]; ZnCl2 1.3 mM, Conc. (%) 0.018%
  C.C.S. (clear colorless solution) pH Range: Not Formed
  Observation: Suspension at pH 3.7-7.4
[4]; ZnCl2 6.7 mM, Conc. (%) 0.09%
  C.C.S. (clear colorless solution) pH Range: 4.90-5.47
  Observation: C.C.S
[4]; [30]
  C.C.S. (clear colorless solution) pH Range: 4.50-5.55
  Observation: C.C.S
[4]; ZnCl2 20.0 mM, Conc. (%) 0.27%
  C.C.S. (clear colorless solution) pH Range: 5.06-5.87
  Observation: C.C.S
[4]; ZnSO4 13.5 mM, Conc. (%) 0.22%
  C.C.S. (clear colorless solution) pH Range: 5.65
  Observation: C.C.S
[1]; [5]
  solubility: 3700 µg/mL (≈ 9.29 mM)
[1]; [6]
  solubility: 6660 µg/mL (≈ 16.7 mM)
[1]; [7]
  solubility: 5850 µg/mL (≈ 14.7 mM)
[1]; [8]
  solubility: 8650 µg/mL (≈ 21.7 mM)
[1]; [9]
  solubility: 11400 µg/mL (≈ 28.6 mM)
[1]; [10]
  solubility: 2900 µg/mL (≈ 7.28 mM)
[1]; [11]
  solubility: 3250 µg/mL (≈ 8.16 mM)
[1]; [12]
  solubility: 5760 µg/mL (≈ 14.5 mM)
[1]; [13]
  solubility: 8390 µg/mL (≈ 21.1 mM)
[1]; [14]
  solubility: 10400 µg/mL (≈ 26.2 mM)
[1]; [15]
  solubility: 1190 µg/mL (≈ 2.99 mM)
[1]; [16]
  solubility: 1980 µg/mL (≈ 4.97 mM)
[1]; [17]
  solubility: 3170 µg/mL (≈ 7.96 mM)
[1]; [18]
  solubility: 4590 µg/mL (≈ 11.5 mM)
[1]; [19]
  solubility: 8440 µg/mL (≈ 21.2 mM)
